Holding throughout (type): cell-based, Escherichia coli
One test concerns E. coli MG1655. Further details: unit not given here.
For test [1], the system named is E. coli screening strain DR1234. The arrangement: unit not given here. As to conditions: Table 7, MHB medium. A digest of the protocol: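 Drug resistance of E. coli MG1655-derived strain DR1234, carrying introduced drug-resistance genes, measured by standard MIC assay in MHB liquid medium.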
For test [2], the system named is PsulA′-'lacZ fusion gene in CM191. The experiment in a line: β-galactosidase activity in the presence of DNA damaging drugs. As to conditions: CM191, two hours after addition, 0.5 μg/ml. How it is done: (§1) The responses to DNA damaging agents of the screening strains described above were measured by analyzing the β-galactosidase activity in the presence of DNA damaging drugs. This method is described in detail in “A Short Course in Bacterial Genetics” 1992, ed. Miller, Cold Spring Harbor Press, pp. 72-74. The PsulA′-'lacZ fusion gene in CM191 was induced 15 fold compared to a non-induced control two hours after the addition of mitomycin C (0.5 μg/ml). In the case of CM242 which contains the PrecN′-'lacZ fusion gene, a more than 40-fold induction had been observed. Such induction was also drug-specific. In an experiment when phosphomycin (at 10 μg/ml) was used, there was no induction of the β-galactosidase activity.

For test [3], the system named is PrecN′-'lacZ fusion gene in CM242. The description is as above. How it is done: as §1
The subject of test [4] is E. coli screening strain CM166. The arrangement: unit not given here. The note with it: Table 9, MHB medium. The text has this:
The level of drug resistance of CM166 was estimated by MIC assay carried out in MHB liquid medium and the results were summarized in Table 9. CM166 is resistant to antibacterial agents whose resistant genes have been incorporated into the strain, but not to other antibacterial drugs whose resistant genes are not incorporated.

The subject of test [5] is lacZ reporter gene of the screening strains (CM191, CM242). The experiment in a line: S-Gal staining assay on solid medium. As to conditions: screening strains on solid medium, drug-impregnated disks, PETG to suppress background. The text has this: The screening strains' responses to DNA damaging agents were further confirmed by S-Gal staining assay. When mitomycin C and streptonigrin (both were well-known DNA damaging drugs) and S-Gal, the indicator, were applied to the screening strains growing on solid medium, blue-colored rings were visible around colonies in drug-impregnated disks. […] Actinomycin D was an exception. CM242 was not sensitive to this drug, although it disrupts DNA structure. PETG (2-phenyethyl B-D-thiogalactoside, Sigma, St Louis Mo.), was used in this experiment to suppress unspecific background activity.

Test [6] relates to E. coli screening strain DR1212. The arrangement: unit not given here. As to conditions: Table 11, MHB medium. How it is done: The level of drug-resistance of screening strain DR1212 was analyzed by standard MIC assay in MHB liquid medium and the result was summarized in Table 11. Similar to screening strains, DR1234 and CM166, DR1212 is also resistant to drugs whose resistant genes have been introduced.

The subject of test [7] is E. coli screening strain CM242. The arrangement: unit not given here. As to conditions: second Table 12, MHB medium. How it is done: The level of drug resistance of these screening strains (both intermediates and finals) was evaluated by standard MIC assay in MHB liquid medium and the result of Strain CM242 is summarized in Table 12.
In test [8] the test system is E. coli screening strain CM435. The arrangement: Minimal inhibitory concentrations (MIC90) CM435: unit not given here. As to conditions: Table 13, MHB medium.
The subject of test [9] is E. coli screening strain CM400. The arrangement: unit not given here. The note with it: Table 13, MHB medium. An outline of the steps:
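MIC determined by standard broth assay in MHB liquid medium for E. coli screening strains CM400 and CM435.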

For another test, the system named is screening strain DR1212. As to the kind of experiment: macrodroplet screening assay for DNA-interacting agents. The note with it: DNA excluded from the bioassay medium. Here is the method: After the period of incubation as described above, macrodroplets can be screened for biological activities by a unique technique termed macrodroplet screening assay. The biological activities of compounds secreted by the encapsulated microorganisms and contained within the macrodroplet beads can be detected by, for example, cell growth inhibition. In general, screening strains should first be cultured to a certain cell density (proper OD reads as described in section 5.3.3.) in liquid medium and then plated in semi-solid medium matrix (0.8%), which overlays the macrodroplet beads (see FIG. 1, item 140. Item 145 of FIG. 1 represents the top layer of semi-solid medium matrix containing a selected screening strain). After being incubated overnight, the screening strain can grow throughout the matrix, except in areas where macrodroplet beads release metabolites, which prevent the growth of the screening strain. The inhibition of cell growth may result in zones of inhibition around these beads (see item 155, FIG. 1), which usually can be detected visually.
Screening for DNA-interacting agents was carried out using the standard macrodroplet screening method previously described, with the exception that DNA was excluded from the bioassay medium. Following overnight incubation at 35° C., macrodroplet beads from zones of inhibition are recovered and processed via the normal route as discussed in section 5.2.2.4.
Alternatively, a second round screening was performed to increase specificity of the screening. Microorganisms obtained as the outcome of the screening described above were subject to a second round of screening using screening strains having a lacZ reporter gene controlled by promoters responsive to DNA damage, such as CM191 and CM242 (see section 5.3.1.d. The details of screening procedure are discussed in both section 5.2.3. Microorganisms from macrodroplets producing zones of activity were purified using methods previously described and fermented in larger volumes. Their species specificities were determined by sequencing their 16S rRNA genes and the active compounds were purified and further characterized. Several active compounds were selected by DR1212, such as chrysomycin, streptonigrin, daunomycin and chromomycin, which are all known DNA damaging agents.

Read-outs that look alike come from different tables or passages of the source.

Take `CO[C@@]12[C@H](COC(N)=O)C3=C(C(=O)C(C)=C(N)C3=O)N1C[C@@H]1N[C@@H]12` [Mitomycin C]: the “Minimal inhibitory concentrations (MIC90) MG1655” value with E. coli MG1655 was determined as 0.8. For the same molecule, the “Minimal inhibitory concentrations (MIC90) DR1234” value in [1] stood at 3.2. Further, the “induction of PsulA′-'lacZ fusion gene compared to a non-induced control” value in test [2] came to 15 fold. Besides, the “induction of PrecN′-'lacZ fusion gene” value in test [3] (CM242, 0.5 μg/ml) was “more than 40 fold”. Besides, the “Minimal inhibitory concentrations (MIC90) CM166” value in test [4] is given as 3.2. The “lacZ reporter gene expression (S-Gal, blue-colored rings)” value in [5] is on record as “induced”. Besides, the “Minimal inhibitory concentrations (MIC90) DR1212” value in [6] is <0.4. Further, the “Minimal inhibitory concentrations (MIC90) CM242” value in [7] stood at 3.2.

In the case of `C[C@@H]1O[C@@H]1P(=O)(O)O` [Phosphomycin], the “Minimal inhibitory concentrations (MIC90) MG1655” value in the test on E. coli MG1655 (Table 13, MHB medium) is 32. Also, the “induction of the β-galactosidase activity” value in test [3] (at 10 μg/ml, strain not specified) is “no induction”. The “Minimal inhibitory concentrations (MIC90) CM435” value in [8] is given as 64. Further, the “Minimal inhibitory concentrations (MIC90) CM400” value in test [9] turned out to be 8.

As to `COC1=C(N)C(=O)c2nc(-c3nc(C(=O)O)c(C)c(-c4ccc(OC)c(OC)c4O)c3N)ccc2C1=O` [Streptonigrin], the “Minimal inhibitory concentrations (MIC90) MG1655” value was 3.2 with E. coli MG1655 (Table 7, MHB medium); 3.2 with E. coli MG1655 (Table 9, MHB medium); 3.2 in the test on E. coli MG1655 (Table 11, MHB medium); 8 in the test on E. coli MG1655 (Table 13, MHB medium); 3.2 with E. coli MG1655 (second Table 12, MHB medium). In test [1], the “Minimal inhibitory concentrations (MIC90) DR1234” value is listed as 3.2. In test [4], the “Minimal inhibitory concentrations (MIC90) CM166” value is on record as 1.6. The “Minimal inhibitory concentrations (MIC90) CM435” value in test [8] was 0.5. Besides, in [5], the “lacZ reporter gene expression (S-Gal, blue-colored rings)” value is given as “induced”. In addition, in [6], the “Minimal inhibitory concentrations (MIC90) DR1212” value is “≦0.2”. Also, the “active compound selected by DR1212” value in the test on screening strain DR1212 is reported as “active”. In addition, the “Minimal inhibitory concentrations (MIC90) CM242” value in test [7] is 3.2. Further, the “Minimal inhibitory concentrations (MIC90) CM400” value in test [9] amounted to 8.
